Measurements published in ChEMBL document CHEMBL3991601, “The target landscape of clinical kinase drugs” (Science, 2017).
Calls of active or inactive are those of the source.

Columns and labels:
[1] = target: Receptor-interacting serine/threonine-protein kinase 3 (Homo sapiens, UniProt Q9Y572)
[2] = target: Adenylate kinase 2, mitochondrial (Homo sapiens, UniProt P54819)
[3] = target: T1, Mitogen-activated protein kinase kinase kinase 6 (Homo sapiens, UniProt O95382)
T1 sequence (O95382 whole entry): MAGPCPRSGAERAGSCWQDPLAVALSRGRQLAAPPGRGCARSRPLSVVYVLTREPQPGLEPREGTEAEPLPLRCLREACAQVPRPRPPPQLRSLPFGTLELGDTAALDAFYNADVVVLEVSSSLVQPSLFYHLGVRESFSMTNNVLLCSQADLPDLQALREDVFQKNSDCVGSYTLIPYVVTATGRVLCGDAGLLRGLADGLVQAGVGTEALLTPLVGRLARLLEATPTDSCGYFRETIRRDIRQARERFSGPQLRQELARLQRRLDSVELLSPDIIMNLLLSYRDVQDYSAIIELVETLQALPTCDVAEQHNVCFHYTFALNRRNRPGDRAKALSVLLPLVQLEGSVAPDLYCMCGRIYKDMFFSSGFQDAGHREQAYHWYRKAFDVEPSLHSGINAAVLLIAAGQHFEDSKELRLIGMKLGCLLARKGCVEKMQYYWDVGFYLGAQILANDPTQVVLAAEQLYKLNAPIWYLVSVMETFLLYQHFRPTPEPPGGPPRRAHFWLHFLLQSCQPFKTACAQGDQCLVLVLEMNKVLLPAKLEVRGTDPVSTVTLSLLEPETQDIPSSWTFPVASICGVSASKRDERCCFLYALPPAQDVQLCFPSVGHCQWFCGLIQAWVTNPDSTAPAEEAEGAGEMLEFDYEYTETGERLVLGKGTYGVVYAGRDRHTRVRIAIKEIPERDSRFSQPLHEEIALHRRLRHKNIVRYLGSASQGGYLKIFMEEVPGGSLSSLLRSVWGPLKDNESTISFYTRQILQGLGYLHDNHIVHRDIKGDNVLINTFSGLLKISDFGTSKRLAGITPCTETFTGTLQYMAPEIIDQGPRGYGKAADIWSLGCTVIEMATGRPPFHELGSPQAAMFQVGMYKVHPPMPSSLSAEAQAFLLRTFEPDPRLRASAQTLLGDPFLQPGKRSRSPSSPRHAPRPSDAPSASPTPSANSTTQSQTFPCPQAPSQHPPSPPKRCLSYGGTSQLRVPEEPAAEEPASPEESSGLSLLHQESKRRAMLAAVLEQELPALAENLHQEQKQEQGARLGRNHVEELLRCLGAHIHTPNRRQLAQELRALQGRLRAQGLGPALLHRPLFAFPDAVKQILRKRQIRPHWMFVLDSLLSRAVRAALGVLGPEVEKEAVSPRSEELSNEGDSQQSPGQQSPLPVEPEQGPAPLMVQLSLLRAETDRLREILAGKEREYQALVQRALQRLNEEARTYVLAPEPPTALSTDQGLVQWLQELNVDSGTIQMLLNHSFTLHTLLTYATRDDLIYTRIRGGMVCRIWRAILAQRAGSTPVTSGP

[4] = target: Cyclin-dependent kinase 1 (Homo sapiens, UniProt P06493)
Chain of Cyclin-dependent kinase 1 (P06493 whole entry): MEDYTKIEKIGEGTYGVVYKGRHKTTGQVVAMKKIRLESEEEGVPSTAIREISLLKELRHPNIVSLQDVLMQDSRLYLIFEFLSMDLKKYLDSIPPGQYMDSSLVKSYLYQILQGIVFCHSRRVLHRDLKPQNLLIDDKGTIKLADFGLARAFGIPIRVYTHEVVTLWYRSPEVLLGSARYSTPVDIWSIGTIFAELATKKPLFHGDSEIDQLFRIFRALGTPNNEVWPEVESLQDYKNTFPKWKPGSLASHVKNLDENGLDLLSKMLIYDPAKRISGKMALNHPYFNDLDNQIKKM

[5] = target: T2, Serine/threonine-protein kinase PLK4 (Homo sapiens, UniProt O00444)
T2 sequence (O00444 whole entry): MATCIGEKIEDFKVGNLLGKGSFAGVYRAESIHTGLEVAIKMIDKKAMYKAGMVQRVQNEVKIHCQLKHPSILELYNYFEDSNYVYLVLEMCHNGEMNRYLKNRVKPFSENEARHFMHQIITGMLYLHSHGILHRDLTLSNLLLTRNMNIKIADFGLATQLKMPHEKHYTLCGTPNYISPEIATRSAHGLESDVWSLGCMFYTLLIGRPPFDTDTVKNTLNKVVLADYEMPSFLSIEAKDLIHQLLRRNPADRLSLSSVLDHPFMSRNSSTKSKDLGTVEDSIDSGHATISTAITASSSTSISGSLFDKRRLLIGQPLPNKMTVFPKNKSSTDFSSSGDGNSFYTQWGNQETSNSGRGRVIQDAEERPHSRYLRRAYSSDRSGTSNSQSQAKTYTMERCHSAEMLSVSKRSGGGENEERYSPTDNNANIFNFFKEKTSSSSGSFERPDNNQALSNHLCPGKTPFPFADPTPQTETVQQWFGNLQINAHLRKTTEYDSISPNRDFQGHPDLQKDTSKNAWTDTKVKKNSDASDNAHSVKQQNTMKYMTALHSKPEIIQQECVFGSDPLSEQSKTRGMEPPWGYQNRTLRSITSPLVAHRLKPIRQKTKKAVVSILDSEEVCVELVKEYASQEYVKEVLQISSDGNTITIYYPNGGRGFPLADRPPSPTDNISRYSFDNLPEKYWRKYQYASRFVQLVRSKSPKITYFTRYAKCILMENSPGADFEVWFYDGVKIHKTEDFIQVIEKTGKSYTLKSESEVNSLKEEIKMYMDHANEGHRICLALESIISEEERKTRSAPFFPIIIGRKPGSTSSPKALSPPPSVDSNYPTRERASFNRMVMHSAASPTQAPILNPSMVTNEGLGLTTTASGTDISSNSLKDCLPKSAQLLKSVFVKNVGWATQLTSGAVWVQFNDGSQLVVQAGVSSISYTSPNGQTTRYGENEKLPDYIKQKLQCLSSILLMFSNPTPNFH

[6] = target: T3, Serine/threonine-protein kinase A-Raf (Homo sapiens, UniProt P10398)
T3 sequence (P10398 whole entry): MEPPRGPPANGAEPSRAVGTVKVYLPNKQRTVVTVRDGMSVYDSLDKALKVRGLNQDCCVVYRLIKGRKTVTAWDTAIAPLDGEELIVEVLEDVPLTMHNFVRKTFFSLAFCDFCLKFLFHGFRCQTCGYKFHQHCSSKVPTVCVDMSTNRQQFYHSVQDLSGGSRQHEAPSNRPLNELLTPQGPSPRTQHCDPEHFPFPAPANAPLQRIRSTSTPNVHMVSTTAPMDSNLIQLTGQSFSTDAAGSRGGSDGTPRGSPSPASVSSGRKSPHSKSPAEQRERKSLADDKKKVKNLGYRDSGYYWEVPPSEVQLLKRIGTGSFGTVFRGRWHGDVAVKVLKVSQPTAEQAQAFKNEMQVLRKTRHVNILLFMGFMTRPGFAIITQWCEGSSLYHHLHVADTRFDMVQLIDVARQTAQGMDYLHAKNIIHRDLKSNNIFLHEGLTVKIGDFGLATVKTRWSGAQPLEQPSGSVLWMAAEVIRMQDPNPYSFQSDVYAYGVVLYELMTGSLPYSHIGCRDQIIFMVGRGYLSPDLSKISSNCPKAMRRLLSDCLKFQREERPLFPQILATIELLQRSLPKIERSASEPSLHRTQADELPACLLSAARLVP
Further: in the data inactive means no Kd found up to 30 µM.

Chain of Receptor-interacting serine/threonine-protein kinase 3 (Q9Y572 whole entry): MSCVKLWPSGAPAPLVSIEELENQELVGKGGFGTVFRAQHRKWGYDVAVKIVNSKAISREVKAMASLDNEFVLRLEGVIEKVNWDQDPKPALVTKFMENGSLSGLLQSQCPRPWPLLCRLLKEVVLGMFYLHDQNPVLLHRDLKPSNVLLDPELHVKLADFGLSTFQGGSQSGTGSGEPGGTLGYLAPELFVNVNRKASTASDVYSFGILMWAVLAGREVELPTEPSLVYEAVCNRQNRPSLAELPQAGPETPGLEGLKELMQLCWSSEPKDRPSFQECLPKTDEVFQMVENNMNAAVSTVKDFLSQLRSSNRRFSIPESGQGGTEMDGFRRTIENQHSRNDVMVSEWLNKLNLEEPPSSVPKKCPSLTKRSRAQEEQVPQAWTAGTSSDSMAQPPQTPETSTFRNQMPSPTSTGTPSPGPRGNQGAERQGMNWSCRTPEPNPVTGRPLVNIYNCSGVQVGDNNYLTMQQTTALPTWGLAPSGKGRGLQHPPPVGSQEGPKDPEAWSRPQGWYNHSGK

Structure (SMILES)	Kd [1]	Kd [2]	Kd [3]	Kd [4]	Kd [5]	Kd [6]
CNS(=O)(=O)Nc1nccc(Cc2c(C)c3ccc(Oc4ncccn4)cc3oc2=O)c1F [AVUTOMETINIB]	> 30 µM (inactive)	> 30 µM (inactive)	> 30 µM (inactive)	> 30 µM (inactive)	> 30 µM (inactive)	> 30 µM (inactive)
COc1cc(CCc2cc(NC(=O)c3ccc(N4C[C@@H](C)N[C@@H](C)C4)cc3)n[nH]2)cc(OC)c1 [AZD-4547]	> 30 µM (inactive)	> 30 µM (inactive)	> 30 µM (inactive)	> 30 µM (inactive)	> 30 µM (inactive)	> 30 µM (inactive)
Cc1cc([C@@H](C)Nc2ccccc2C(=O)O)c2nc(N3CCOCC3)cc(=O)n2c1 [AZD-6482]	> 30 µM (inactive)	> 30 µM (inactive)	> 30 µM (inactive)	> 30 µM (inactive)	> 30 µM (inactive)	> 30 µM (inactive)
COc1ccc(-c2ccc3c(N4CCOC[C@@H]4C)nc(N4CCOC[C@@H]4C)nc3n2)cc1CO [AZD-8055]	> 30 µM (inactive)	> 30 µM (inactive)	> 30 µM (inactive)	> 30 µM (inactive)	> 30 µM (inactive)	> 30 µM (inactive)
Cc1ccc(NC(=O)c2ccc(CN3CC[C@H](N(C)C)C3)c(C(F)(F)F)c2)cc1Nc1nccc(-c2cncnc2)n1 [BAFETINIB]	0.506 µM (active)	> 30 µM (inactive)	> 30 µM (inactive)	> 30 µM (inactive)	> 30 µM (inactive)	2.89 µM (active)
CCS(=O)(=O)N1CC(CC#N)(n2cc(-c3ncnc4[nH]ccc34)cn2)C1 [BARICITINIB]	> 30 µM (inactive)	> 30 µM (inactive)	> 30 µM (inactive)	> 30 µM (inactive)	> 30 µM (inactive)	> 30 µM (inactive)
Cc1cc2c(F)c(Oc3ncnn4cc(OC[C@@H](C)OC(=O)[C@H](C)N)c(C)c34)ccc2[nH]1 [BRIVANIB ALANINATE]	> 30 µM (inactive)	> 30 µM (inactive)	> 30 µM (inactive)	> 30 µM (inactive)	> 30 µM (inactive)	> 30 µM (inactive)
CNC(=O)c1ccc(-c2cnc3ncc(Cc4ccc5ncccc5c4)n3n2)cc1F [CAPMATINIB]	> 30 µM (inactive)	> 30 µM (inactive)	> 30 µM (inactive)	> 30 µM (inactive)	> 30 µM (inactive)	> 30 µM (inactive)
O=C(c1ccc(F)c(F)c1Nc1ccc(I)cc1F)N1CC(O)([C@@H]2CCCCN2)C1 [COBIMETINIB]	> 30 µM (inactive)	> 30 µM (inactive)	> 30 µM (inactive)	> 30 µM (inactive)	> 30 µM (inactive)	> 30 µM (inactive)
COC(=O)N[C@@H](C)CNc1nccc(-c2cn(C(C)C)nc2-c2cc(Cl)cc(NS(C)(=O)=O)c2F)n1 [ENCORAFENIB]	0.967 µM (active)	> 30 µM (inactive)	> 30 µM (inactive)	> 30 µM (inactive)	> 30 µM (inactive)	> 30 µM (inactive)
CO[C@H]1C[C@@H]2CC[C@@H](C)[C@@](O)(O2)C(=O)C(=O)N2CCCC[C@H]2C(=O)O[C@H]([C@H](C)C[C@@H]2CC[C@@H](OCCO)[C@H](OC)C2)CC(=O)[C@H](C)/C=C(\C)[C@@H](O)[C@@H](OC)C(=O)[C@H](C)C[C@H](C)/C=C/C=C/C=C/1C [EVEROLIMUS]	> 30 µM (inactive)	> 30 µM (inactive)	> 30 µM (inactive)	> 30 µM (inactive)	> 30 µM (inactive)	> 30 µM (inactive)
COCCNCc1ccc(-c2cc3nccc(Oc4ccc(NC(=S)NC(=O)Cc5ccc(F)cc5)cc4F)c3s2)nc1 [GLESATINIB]	> 30 µM (inactive)	> 30 µM (inactive)	> 30 µM (inactive)	> 30 µM (inactive)	1.42 µM (active)	> 30 µM (inactive)
CC[C@H](Nc1ncnc2[nH]cnc12)c1nc2cccc(F)c2c(=O)n1-c1ccccc1 [IDELALISIB]	> 30 µM (inactive)	> 30 µM (inactive)	> 30 µM (inactive)	> 30 µM (inactive)	> 30 µM (inactive)	> 30 µM (inactive)
Cn1cc(-c2ccc3nnc(C(F)(F)c4ccc5ncccc5c4)n3n2)cn1 [JNJ-38877605]	> 30 µM (inactive)	> 30 µM (inactive)	> 30 µM (inactive)	> 30 µM (inactive)	> 30 µM (inactive)	> 30 µM (inactive)
COC(=O)[C@@]1(O)C[C@H]2O[C@]1(C)n1c3ccccc3c3c4c(c5c6ccccc6n2c5c31)C(=O)NC4 [K-252A]	> 30 µM (inactive)	> 30 µM (inactive)	0.335 µM (active)	> 30 µM (inactive)	0.073 µM (active)	> 30 µM (inactive)
Cc1c(F)cc(C(=O)NC2CC2)cc1-c1ccc(C(=O)NCC(C)(C)C)cn1 [LOSMAPIMOD]	> 30 µM (inactive)	> 30 µM (inactive)	> 30 µM (inactive)	> 30 µM (inactive)	> 30 µM (inactive)	> 30 µM (inactive)
Cn1cc(-c2ccc(F)c(C(F)(F)F)c2)nc1C1CCN(c2ncnc3[nH]ncc23)CC1 [LY-2584702]	> 30 µM (inactive)	> 30 µM (inactive)	> 30 µM (inactive)	> 30 µM (inactive)	> 30 µM (inactive)	> 30 µM (inactive)
O=C(O)[C@]1(Cc2cccc(Nc3nccs3)n2)CC[C@@H](Oc2cccc(Cl)c2F)CC1 [MK-5108]	> 30 µM (inactive)	> 30 µM (inactive)	> 30 µM (inactive)	> 30 µM (inactive)	0.183 µM (active)	> 30 µM (inactive)
